Source: patent publication US20140249143A1, “Compounds And Methods For Enhancing Innate Immune Responses” (GlaxoSmithKline LLC, priority 2011, published 2014)

What was measured:
Type in all cases: cell-based
[1] = system: HCV genotype 1a subgenomic replicon; test: Anti-Hepatitis C replicon assay, genotype 1a (luciferase); conditions: Hepatitis C virus; luciferase activity measured 48 hours later; read-out: HCV Genotype 1A Replicon pEC50 (converted)
Experimental: (§1) Compounds were assayed for activity against HCV using the genotype 1a and 1b subgenomic replicon model systems. Stable cell lines bearing the genotype 1a and 1b replicons were used for screening of compounds. Both replicons are bicistonic and contain the firefly luciferase gene. The ET cell line is stably transfected with RNA transcripts harboring a I389luc-ubi-neo/NS3-3′/ET replicon with firefly luciferase-ubiquitin-neomycin phosphotransferase fusion protein and EMCV-IRES driven NS3-5B polyprotein containing the cell culture adaptive mutations (E1202G; T1280I; K1846T) (Krieger at al, 2001 and unpublished). The genotype 1a replicon is a stable cell line licensed from Apath LLC, modified to contain the firefly luciferase gene. The cells were grown in DMEM, supplemented with 10% fetal calf serum, 2 mM Glutamine, Penicillin (100 IU/mL)/Streptomycin (100 μg/mL), 1× nonessential amino acids, and 250-500 μg/mL G418 (“Geneticin”). They were all available through Life Technologies (Bethesda, Md.). The cells were plated at 0.5×10^4 cells/well in 384 well plates containing compounds. The final concentration of compounds ranged between 0.03 pM to 50 μm and the final DMSO concentration of 0.5-1%.
(§2) Luciferase activity was measured 48 hours later by adding a Steady glo (Promega, Madison, Wis.). Percent inhibition of replication data was plotted relative to no compound control. Under the same condition, cytotoxicity of the compounds was determined using cell titer glo (Promega, Madison, Wis.). IC50s were determined from a 10 point dose response curve using 3-4-fold serial dilution for each compound, which spans a concentration range>1000 fold. BioAssay determines the level of inhibition for each compound by normalizing cross-talk corrected plate values against the negative (low or background, cells with no compound present) and positive (high DMSO, no cells) controls to determine Percent Inhibition:
(§3) These normalized values are exported to IC50 where they are plotted against the molar compound concentrations using the standard four parameter logistic equation: […]

[2] = system: ISG56 (Interferon-Stimulated Gene 56) promoter ISRE; test: ISG56 luciferase reporter assay in HEK 293 cells; conditions: Homo sapiens, HEK293; HEK 293 reporter, 24 hours; 100% = small molecule control test compound; read-out: ISG56 (Average Max Response) %
Experimental: Compounds of the present invention were tested against a HEK (Human Embryonic Kidney) 293 cell line that was stably transfected with a firefly luciferase reporter gene under the control of the ISG56 (Interferon-Stimulated Gene 56) promoter ISRE (Interferon-Stimulated Response Element). While the ISRE is in the opposite orientation of the wild type promoter, literature^1 cites that the response elements are pallindromic and function properly in either orientation. ^1Reich, N., Evans, B., Levy, D., Fahey, D., Knight, E., Damell, J. E. (1987) Interferon-induced transcription of a gene encoding a 15-kDa protein depends on an upstream enhancer element. See, Proc. Natl. Acad. Sci. 84, (6394-6398).
In preparation for the assay, test compounds were serially diluted 3-fold in DMSO from a typical top concentration of 5 mM and plated at 0.2 μL in a 384-well, polystyrene, tissue culture treated plate with lid (Greiner Bio-One North America, Inc., Monroe, N.C.) to generate 11-point dose response curves in the assay. Low control wells (0% response) contained 0.2 μL of DMSO alone, and high control wells (100% response) contained 0.2 μL of a small molecule control test compound.
Frozen stocks of the transfected HEK 293 cells were washed and recovered in DMEM I Ham's F-12 media (Invitrogen Corporation, Carlsbad, Calif.) supplemented with 10% v/v qualified Australian fetal bovine serum (FBS) (Invitrogen Corporation, Carlsbad, Calif.), 1× GlutaMAX™ (Invitrogen Corporation, Carlsbad, Calif.), 1×MEM non-essential amino acids (NEAA) (Invitrogen Corporation, Carlsbad, Calif.) and 500 μg/ml Geneticin® (Invitrogen Corporation, Carlsbad, Calif.). The cells were diluted to 500,000 cells/mL in the supplemented DMEM/Ham's F-12 media, and 20 μL of the cell suspension were added to each well of the previously prepared 384-well compound plate, resulting in 10,000 cells/well. The plate, with lid, were placed in a 37° C., 5% CO2 humidified incubator for 24 hours.
Following incubation, the plates were removed and placed on the bench top without lids to equilibrate to room temperature for 30 minutes. Steady-Glo® (Promega Corporation, Madison, Wis.) was prepared according to the manufacturer's instructions, and 10 μL were added to each plate well. After a twenty minute incubation at room temperature, luminescence was read on a ViewLux™ (PerkinElmer Inc., Waltham, Mass.).
The data for dose responses were plotted as % activation versus compound concentration following normalization using the formula 100*((U−C1)/(C2−C1)), where U was the unknown value, C1 was the average of the low (0% response) control wells and C2 was the average of the high (100% response) control wells. Curve fitting was performed with the equation y=A+((B−A)/(1+(10^x/10^C)^D)), where A was the minimum response, B was the maximum response, C was the log(EC50) and D was the Hill slope. The results for each test compound were recorded as pEC50 values (—C in the above equation) and as max response values at a given concentration.

[3] = system: HCV genotype 1b subgenomic replicon; test: Anti-Hepatitis C replicon assay, genotype 1b (luciferase); conditions: Hepatitis C virus; luciferase activity measured 48 hours later; read-out: HCV Genotype 1B Replicon pEC50 (converted)
Experimental: as §1, §2, §3

SMILES	EC50 [1]	Emax [2]	EC50 [3]
Cc1cc(C)c2ccc3nc(-c4nnco4)cn3c2n1 [Compound 26, 2-{2,4-dimethylimidazo[1,2-a]1,8-naphthyridin-8-yl}-1,3,4-oxadiazole]	6.31 µM	8%	5.01 µM
FC(F)(F)c1cc(-c2ccoc2)nc2c1ccc1nc(-c3nnco3)cn12 [Compound 12, 2-[2-(furan-3-yl)-4-(trifluoromethyl)imidazo[1,2-a]1,8-naphthyridin-8-yl]-1,3,4-oxadiazole]	0.398 µM	13.5%	0.794 µM
FC(F)(F)c1cc(Cl)nc2c1ccc1nc(-c3nnco3)cn12 [Compound 29, 2-[2-chloro-4-(trifluoromethyl)imidazo[1,2-a]1,8-naphthyridin-8-yl]-1,3,4-oxadiazole]	6.31 µM	10%	7.94 µM
Cc1cc(C(F)(F)F)c2ccc3nc(-c4nnco4)cn3c2n1 [Compound 7, 2-[2-methyl-4-(trifluoromethyl)imidazo[1,2-a]1,8-naphthyridin-8-yl]-1,3,4-oxadiazole]	1.26 µM		0.631 µM
CC(C)c1cc(-c2ccccc2)c2ccc3nc(-c4nnco4)cn3c2n1 [Compound 31, 2-[4-phenyl-2-(propan-2-yl)imidazo[1,2-a]1,8-naphthyridin-8-yl]-1,3,4-oxadiazole]	0.398 µM		1.26 µM
FC(F)(F)c1cc(C(F)(F)F)c2ccc3nc(-c4ccco4)cn3c2n1 [Compound 25, 8-(furan-2-yl)-2,4-bis(trifluoromethyl)imidazo[1,2-a]1,8-naphthyridine]	3.98 µM	6.5%	3.16 µM
FC(F)(F)c1cc(C(F)(F)F)c2ccc3nc(-c4ncco4)cn3c2n1 [Compound 27, 2-[2,4-bis(trifluoromethyl)imidazo[1,2-a]1,8-naphthyridin-8-yl]-1,3-oxazole]	2.51 µM	29%	6.31 µM
FC(F)(F)c1cc(-c2ccsc2)nc2c1ccc1nc(-c3nnco3)cn12 [Compound 6, 2-[2-(thiophen-3-yl)-4-(trifluoromethyl)imidazo[1,2-a]1,8-naphthyridin-8-yl]-1,3,4-oxadiazole]	0.2 µM	7.75%	0.501 µM
FC(F)(F)c1cc(C(F)(F)F)c2ccc3nc(-c4cnco4)cn3c2n1 [Compound 4, 5-[2,4-bis(trifluoromethyl)imidazo[1,2-a]1,8-naphthyridin-8-yl]-1,3-oxazole]	0.126 µM	178%	0.398 µM
O=C(C1CCC1)n1c(-c2nnco2)cc2ccc3c(C(F)(F)F)cc(C(F)(F)F)nc3c21 [Compound 21, 2-[1-cyclobutanecarbonyl-6,8-bis(trifluoromethyl)-1H-pyrrolo[3,2-h]quinolin-2-yl]-1,3,4-oxadiazole]	0.631 µM	70%	2 µM
FC(F)(F)c1cc(C(F)(F)F)c2ccc3cc(-c4nnco4)n(Cc4ccccc4)c3c2n1 [Compound 14, 2-[1-benzyl-6,8-bis(trifluoromethyl)-1H-pyrrolo[3,2-h]quinolin-2-yl]-1,3,4-oxadiazole]	7.94 µM	10%	1 µM
CCOc1cc(C(F)(F)F)c2ccc3nc(-c4nnco4)cn3c2n1 [Compound 10, 2-[2-ethoxy-4-(trifluoromethyl)imidazo[1,2-a]1,8-naphthyridin-8-yl]-1,3,4-oxadiazole]	1 µM	10%	0.794 µM
CC(C)c1cc(C(F)(F)F)c2ccc3nc(-c4nnco4)cn3c2n1 [Compound 3, 2-[2-(propan-2-yl)-4-(trifluoromethyl)imidazo[1,2-a]1,8-naphthyridin-8-yl]-1,3,4-oxadiazole]	0.1 µM	408%	0.316 µM
CC(C)c1cc(Cl)c2ccc3nc(-c4nnco4)cn3c2n1 [Compound 23, 2-[4-chloro-2-(propan-2-yl)imidazo[1,2-a]1,8-naphthyridin-8-yl]-1,3,4-oxadiazole]	1.26 µM	110%	3.16 µM
FC(F)(F)c1cc(C(F)(F)F)c2ccc3[nH]c(-c4cnco4)nc3c2n1 [Compound 28, 5-[6,8-bis(trifluoromethyl)-3H-imidazo[4,5-h]quinolin-2-yl]-1,3-oxazole]	10 µM	11.5%	7.94 µM
FC(F)(F)c1cc(C(F)(F)F)c2ccc3cc(-c4nnco4)[nH]c3c2n1 [Compound 15, 2-[6,8-bis(trifluoromethyl)-1H-pyrrolo[3,2-h]quinolin-2-yl]-1,3,4-oxadiazole]	0.398 µM	63.5%	1 µM
CCc1cc(C(F)(F)F)c2ccc3nc(-c4nnco4)cn3c2n1 [Compound 13, 2-[2-ethyl-4-(trifluoromethyl)imidazo[1,2-a]1,8-naphthyridin-8-yl]-1,3,4-oxadiazole]	0.398 µM	346%	1 µM
Cc1c(-c2nnco2)nc2ccc3c(C(F)(F)F)cc(C(F)(F)F)nc3n12 [Compound 9, 2-[9-methyl-2,4-bis(trifluoromethyl)imidazo[1,2-a]1,8-naphthyridin-8-yl]-1,3,4-oxadiazole]	0.158 µM	262%	0.794 µM
FC(F)(F)c1cc(-c2ccccc2)nc2c1ccc1nc(-c3nnco3)cn12 [Compound 17, 2-[2-phenyl-4-(trifluoromethyl)imidazo[1,2-a]1,8-naphthyridin-8-yl]-1,3,4-oxadiazole]	0.501 µM	31.5%	1.26 µM
FC(F)(F)c1cc(C(F)(F)F)c2ccc3nc(-c4nnco4)cn3c2c1 [Compound 24, 2-[6,8-bis(trifluoromethyl)imidazo[1,2-a]quinolin-2-yl]-1,3,4-oxadiazole]	0.631 µM	5.75%	3.16 µM
FC(F)Oc1cc(C(F)(F)F)c2ccc3nc(-c4nnco4)cn3c2n1 [Compound 20, 2-[2-(difluoromethoxy)-4-(trifluoromethyl)imidazo[1,2-a]1,8-naphthyridin-8-yl]-1,3,4-oxadiazole]	1 µM	13.5%	1.58 µM
FC(F)(F)c1cc(C(F)(F)F)c2ccc3[nH]c(-c4nnco4)cc3c2n1 [Compound 8, 2-[2,4-bis(trifluoromethyl)-7H-pyrrolo[2,3-h]quinolin-8-yl]-1,3,4-oxadiazole]	0.631 µM	2.5%	0.631 µM
CC(C)c1cc(C(C)C)c2ccc3nc(-c4nnco4)cn3c2n1 [Compound 30, 2-[2,4-bis(propan-2-yl)imidazo[1,2-a]1,8-naphthyridin-8-yl]-1,3,4-oxadiazole]	0.316 µM		1 µM
